What was measured:
human abdominal skin = test: In vitro human skin permeation and skin disposition, flow-through diffusion cells (Example 1); type: in vitro ADME
Protocol: Flow through diffusion cells were used for the permeation studies. HEPES-buffered Hanks' balanced salts containing 40% (polyethylene glycol) PEG 400 with gentamicin was used for the receiver compartment. Donor solution was comprised of either 100% propylene glycol (PG) solution or a rubbed in gel formulation. […] Drug accumulation in the skin after a 24 or 36 h diffusion experiment was determined as μmol/g wet tissue weight.
The skin samples used in the following experiments were obtained from abdominal reduction surgery and dermatomed to a thickness of approximately 200 μm. The skin samples used herein were frozen at −20° C. for less than six months.
1 L of receiver fluid was prepared by measuring 1 L of nanopure water into a graduated cylinder. 90% of the water was added to an Erlenmeyer flask. Hanks' salts (1 bottle) were added to the water along with 5.96 g of HEPES and 0.35 g of sodium bicarbonate. The pH of the solution was adjusted with 1 N sodium hydroxide solution to pH 7.4. The remaining water was added and the receiver fluid was filtered through a 0.2μ filter (Millipore, Billerica, Mass.). 50 mg of gentamicin was added to the filtered receiver fluid and 400 mL of the receiver fluid was removed and replaced with 400 mL of PEG 400.
Two different formulations were used for charging the donor compartment. Drugs were made up in either 100% PG or a gel formulation. For the PG solution, approximately 50-120 mg of the appropriate drug was weighed into a glass silanized culture tube. The gel formulation resulted from the mixing of absolute ethanol, nanopure water, IPM, Carbopol® 980, 0.1 N aqueous sodium hydroxide solution and the respective drug.
Dermatomed skin harvested from abdominoplasty, stored at −20° C., was used for the experiments. A PermeGear flow-through (In-Line, Riegelsville, Pa.) diffusion cell system was used for the skin permeation studies.
Diffusion cells were kept at 32° C. with a circulating water bath. Human epidermal skin was arranged in the diffusion cell with stratum corneum (upper layer of skin) facing the donor compartment. Permeation area of the skin was 0.95 cm^2. Data was collected from a human skin donor with three to four diffusion cells per treatment.
Receiver solution was HEPES-buffered Hanks' balanced salts with gentamicin containing 40% PEG 400 at a pH of 7.4 and flow rate was adjusted to 0.8 mL/h. Each cell was charged with 0.050 mL of the respective drug formulation (donor solution) or with 0.035 mL of gel formulation which was rubbed into the skin for 15 sec with a Teflon coated rod. The formulation was applied to ensure complete coverage. Diffusion cells were covered with a cap for the duration of the study.
Samples were collected into scintillation vials in 3 h increments for either 24 h or 36 h. All the samples were stored at 4° C. until extracted. An aliquot (0.5 mL) of the diffusion sample was placed into a silanized HPLC vial and 0.5 mL of acetonitrile was added to the sample, capped and vortexed.
At the end of the experiment, the skin tissue was removed from the diffusion cell, rinsed with nanopure water, and blotted dry with a paper towel. The skin was tape stripped twice using book tape (Scotch™, 3M, St. Paul, Minn.) to remove drug formulation adhering to the tissue surface. The area of skin in contact with the drug was cut out, chopped up and placed in a pre-weighed scintillation vial. Ten mL of acetonitrile was added to the vial and drug was extracted from the skin by shaking at room temperature overnight. The following day a 0.1 mL aliquot was removed and diluted with an additional 0.9 mL of acetonitrile. The diluted sample was added to the silanized HPLC vial for analysis.
At the end of the experiment, a 0.01 mL aliquot of the PG donor solution was removed and added to a scintillation vial containing 10 mL of acetonitrile. The vials were vortexed and then sonicated for 15 min. An aliquot of 1 mL was removed and transferred into a silanized HPLC vial for analysis.

[1] = Plasma stability of cannabidiol prodrugs (bioconversion to parent drug); type: in vitro ADME; details: Table 20, di-prodrug in plasma; for % mono-prodrug at time (h): mono-prodrug formed
Protocol: An approximated 1 mg/mL stock solution of each prodrug was prepared in 100 μL of ethanol and 900 μL of acetonitrile. Ten (10) μL of stock was spiked into 1 mL of plasma and vortexed. The samples were kept sealed in an amber vial and samples were obtained to analyze for bioconversion to parent drug.

[2] = Table 3, in propylene glycol, CBD high conc.
[3] = Table 3, in propylene glycol, CBD low conc.
[4] = Table 4, in propylene glycol, CBD high conc.
[5] = Table 4, in propylene glycol, CBD low conc.
[6] = Table 5, in propylene glycol, CBD high conc.
[7] = Table 5, in propylene glycol, CBD low conc.
[8] = Table 11, in gel formulation, as applied compound (CBD or intact prodrug)
[9] = Table 12, in gel formulation, as applied compound (CBD or intact prodrug)
[10] = Table 13, in propylene glycol, 36 h, as applied compound (CBD or intact prodrug)
[11] = Table 13, in propylene glycol, as applied compound (CBD or intact prodrug)
[12] = Table 14, in propylene glycol, as applied compound (CBD or intact prodrug)
[13] = Table 11, in gel formulation, CBD from applied prodrug
[14] = Table 11, in gel formulation, prodrug applied, as total CBD equivalents (cannabidiol and/or prodrug)
[15] = Table 12, in gel formulation, CBD from applied prodrug
[16] = Table 12, in gel formulation, prodrug applied, as total CBD equivalents
[17] = Table 13, in propylene glycol, 36 h, CBD from applied prodrug
[18] = Table 13, in propylene glycol, 36 h, prodrug applied, as total CBD equivalents
[19] = Table 13, in propylene glycol, CBD from applied prodrug
[20] = Table 13, in propylene glycol, prodrug applied, as total CBD equivalents

C=C(C)[C@@H]1CCC(C)=C[C@H]1c1c(O)cc(CCCCC)cc1O [cannabidiol, reference compound]
24 h cumulative amt (human abdominal skin; Table 2, in propylene glycol): 222.7 ± 74.0 nmol
24 h skin conc (human abdominal skin; Table 2, in propylene glycol): 190.8 ± 10.7 µmol/g
Flux (human abdominal skin; Table 2, in propylene glycol): 10.4 ± 2.0 nmol/cm^2/h
24 h cumulative amt (human abdominal skin; [2]): 89.2 ± 15.0 nmol
24 h skin conc (human abdominal skin; [2]): 223.1 ± 75.3 µmol/g
Flux (human abdominal skin; [2]): 7.8 ± 1.1 nmol/cm^2/h
24 h cumulative amt (human abdominal skin; [3]): 50.1 ± 28.1 nmol
24 h skin conc (human abdominal skin; [3]): 26.3 ± 14.1 µmol/g
Flux (human abdominal skin; [3]): 4.5 ± 2.5 nmol/cm^2/h
24 h cumulative amt (human abdominal skin; [4]): 110.4 ± 18.9 nmol
24 h skin conc (human abdominal skin; [4]): 167.6 ± 76.7 µmol/g
Flux (human abdominal skin; [4]): 8.5 ± 2.4 nmol/cm^2/h
24 h cumulative amt (human abdominal skin; [5]): 63.5 ± 47.5 nmol
24 h skin conc (human abdominal skin; [5]): 112.5 ± 61.8 µmol/g
Flux (human abdominal skin; [5]): 6.0 ± 3.3 nmol/cm^2/h
24 h cumulative amt (human abdominal skin; [6]): 42.4 ± 10.7 nmol
24 h skin conc (human abdominal skin; [6]): 104.9 ± 51.0 µmol/g
Flux (human abdominal skin; [6]): 3.9 ± 0.0 nmol/cm^2/h
24 h cumulative amt (human abdominal skin; [7]): 56.9 ± 39.4 nmol
24 h skin conc (human abdominal skin; [7]): 75.3 ± 33.1 µmol/g
Flux (human abdominal skin; [7]): 5.7 ± 3.5 nmol/cm^2/h
24 h cumulative amt (human abdominal skin; Table 6, in propylene glycol): 27.5 ± 32.5 nmol
24 h skin conc (human abdominal skin; Table 6, in propylene glycol): 49.2 ± 15.2 µmol/g
Flux (human abdominal skin; Table 6, in propylene glycol): 4.3 ± 2.4 nmol/cm^2/h
36 h cumulative amt (human abdominal skin; Table 7, in propylene glycol): 15.7 ± 5.4 nmol
36 h skin conc. (human abdominal skin; Table 7, in propylene glycol): 44.1 ± 15.5 µmol/g
Flux (human abdominal skin; Table 7, in propylene glycol, 36 h experiment): 1.0 ± 0.7 nmol/cm^2/h
36 h cumulative amt (human abdominal skin; Table 8, in gel formulation): 52.0 ± 42.7 nmol
36 h skin conc. (human abdominal skin; Table 8, in gel formulation): 28.4 ± 8.8 µmol/g
Flux (human abdominal skin; Table 8, in gel formulation, 36 h experiment): 2.0 ± 2.3 nmol/cm^2/h
24 h cumulative amt (human abdominal skin; Table 9, in gel formulation): 1.9 ± 1.3 nmol
Flux (human abdominal skin; Table 9, in gel formulation): 0.10 ± 0.06 nmol/cm^2/h
24 h skin conc (human abdominal skin; Table 9, in gel formulation, as applied compound (CBD, or PD = intact prodrug)): 24.6 ± 3.6 µmol/g
24 h cumulative amt (human abdominal skin; Table 10, in propylene glycol): 164.5 ± 34.1 nmol
Flux (human abdominal skin; Table 10, in propylene glycol): 8.0 ± 0.9 nmol/cm^2/h
24 h skin conc (human abdominal skin; Table 10, in propylene glycol, as applied compound (CBD, or PD = intact prodrug)): 85.8 ± 24.3 µmol/g
24 h cumulative amt (human abdominal skin; [8]): 13.3 ± 2.6 nmol
24 h skin conc (human abdominal skin; [8]): 29.0 ± 10.2 µmol/g
Flux (human abdominal skin; [8]): 1.0 ± 0.1 nmol/cm^2/h
24 h cumulative amt (human abdominal skin; [9]): 2.9 ± 0.1 nmol
24 h skin conc (human abdominal skin; [9]): 88.4 ± 36.3 µmol/g
Flux (human abdominal skin; [9]): 0.24 ± 0.003 nmol/cm^2/h
Flux (human abdominal skin; [10]): 4.2 ± 0.0 nmol/cm^2/h
36 h cumulative amt (human abdominal skin; [11]): 94.5 ± 0.0 nmol
36 h skin conc. (human abdominal skin; [11]): 39.4 ± 0.0 µmol/g
Flux (human abdominal skin; Table 14, in propylene glycol, 36 h, as applied compound (CBD or intact prodrug)): 8.4 ± 2.4 nmol/cm^2/h
36 h cumulative amt (human abdominal skin; [12]): 93.6 ± 38.0 nmol
36 h skin conc. (human abdominal skin; [12]): 92.9 ± 4.8 µmol/g

C=C(C)C1CCC(C)=CC1c1c(OC(=O)CN(C)C)cc(CCCCC)cc1OC(=O)CN(C)C (centres unmarked) [ALL00105, CBD bis(N,N-dimethylglycinate)]
% mono-prodrug at time (h) ([1]; 2 h): 0%
% mono-prodrug at time (h) ([1]; 4 h): 0%
% mono-prodrug at time (h) ([1]; 22 h): 0%
% mono-prodrug at time (h) ([1]; 24 h): 0%
% Di-prodrug at time (h) ([1]; 0 h): 100%
% Di-prodrug at time (h) ([1]; 2 h): 92%
% Di-prodrug at time (h) ([1]; 4 h): 88%
% Di-prodrug at time (h) ([1]; 22 h): 58%
% Di-prodrug at time (h) ([1]; 24 h): 55%
form in which the prodrug permeated through the human skin (human abdominal skin; Example 1): permeated primarily as intact prodrug
24 h cumulative amt (human abdominal skin; [13]): 4.1 ± 1.5 nmol
24 h skin conc (human abdominal skin; [13]): 2.5 ± 2.1 µmol/g
Flux (human abdominal skin; [13]): 0.3 ± 0.02 nmol/cm^2/h
Lag time (human abdominal skin; [13]): 0.8 ± 0.4 h
24 h cumulative amt (human abdominal skin; [8]): 66.8 ± 9.0 nmol
24 h skin conc (human abdominal skin; [8]): 82.1 ± 58.9 µmol/g
Flux (human abdominal skin; [8]): 2.9 ± 0.5 nmol/cm^2/h
Lag time (human abdominal skin; [8]): 7.9 ± 3.3 h
24 h cumulative amt (human abdominal skin; [14]): 76.5 ± 7.9 nmol
24 h skin conc (human abdominal skin; [14]): 84.5 ± 60.7 µmol/g
Flux (human abdominal skin; [14]): 3.3 ± 0.7 nmol/cm^2/h
Lag time (human abdominal skin; [14]): 1.2 ± 0.1 h
24 h cumulative amt (human abdominal skin; [15]): 1.1 ± 0.02 nmol
24 h skin conc (human abdominal skin; [15]): 2.2 ± 2.1 µmol/g
Flux (human abdominal skin; [15]): 0.06 ± 0.02 nmol/cm^2/h
Lag time (human abdominal skin; [15]): 1.0 ± 0.6 h
24 h cumulative amt (human abdominal skin; [9]): 7.3 ± 0.03 nmol
24 h skin conc (human abdominal skin; [9]): 27.5 ± 7.4 µmol/g
Flux (human abdominal skin; [9]): 0.37 ± 0.01 nmol/cm^2/h
Lag time (human abdominal skin; [9]): 3.9 ± 4.8 h
24 h cumulative amt (human abdominal skin; [16]): 8.9 ± 0.04 nmol
24 h skin conc (human abdominal skin; [16]): 29.7 ± 9.1 µmol/g
Flux (human abdominal skin; [16]): 0.41 ± 0.03 nmol/cm^2/h
Lag time (human abdominal skin; [16]): 0.9 ± 1.2 h
Flux (human abdominal skin; [17]): 1.4 ± 0.2 nmol/cm^2/h
Lag time (human abdominal skin; [17]): 12.6 ± 1.3 h
Flux (human abdominal skin; [10]): 0.5 ± 0.01 nmol/cm^2/h
Lag time (human abdominal skin; [10]): 7.5 ± 0.0 h
Flux (human abdominal skin; [18]): 1.9 ± 0.2 nmol/cm^2/h
Lag time (human abdominal skin; [18]): 10.0 ± 2.9 h
36 h cumulative amt (human abdominal skin; [19]): 32.6 ± 3.0 nmol
36 h skin conc. (human abdominal skin; [19]): 2.8 ± 3.8 µmol/g
36 h cumulative amt (human abdominal skin; [11]): 14.7 ± 3.2 nmol
36 h skin conc. (human abdominal skin; [11]): 8.8 ± 0.0 µmol/g
36 h cumulative amt (human abdominal skin; [20]): 47.2 ± 0.1 nmol
36 h skin conc. (human abdominal skin; [20]): 7.2 ± 10.1 µmol/g
cumulative amount of total cannabidiol equivalents delivered, compared to cannabidiol (human abdominal skin; gel formulation): 3.1-5.9 fold
decrease of lag time of total cannabidiol compared to the parent drug (human abdominal skin; gel formulation studies): 7 to 8 h
mean flux enhancement (human abdominal skin; mean between the two gel formulation experiments): 2.5
enhancement with the propylene glycol donor solution (human abdominal skin; propylene glycol donor solution): did not show any enhancement
